Source: patent US11130741B2 (Bioimics AB, priority 2016, dated 2021)
Converted amounts (≈) assume the structure as drawn. Structures can show the parent of a compound that is named as a salt. Where two headings read alike, the source gives them in different places.

Key:
[1] = test system: E. coli RNase P RNA, M1 RNA; test: Inhibition of bacterial RNase P activity, IC50 determination (cleavage of pATSerUG by M1 RNA); assay type: biochemical; details: NI = No inhibition
[2] = test system: Staphylococcus aureus subsp. aureus (ATCC29213); test: MIC, broth microdilution (CLSI), Staphylococcus aureus subsp. aureus ATCC29213; assay type: cell-based; details: ATCC29213, Table 15, read-out: S. aureus ("wound") (MIC)
[3] = test system: Escherichia coli (ATCC25922); test: MIC, broth microdilution (CLSI), Escherichia coli ATCC25922
Method: Initial minimal inhibitory concentration (MIC) tests were made on two bacterial strains: • Escherichia coli (ATCC25922) • Staphylococcus aureus (ATCC25923).
Minimal Inhibitory Concentration (MIC)
MIC values were determined using the standard broth microdilution procedure based on the guidelines by the Clinical and Laboratory Standards Institute (CLSI). Briefly, the compounds were dissolved in DMSO to 10 mM. They were diluted in cation-adjusted Mueller-Hinton broth (CAMHB) to four times the highest concentration tested. A serial 2-fold dilution in CAMHB was done in microdilution plates. The inoculum of bacterial strain to be tested was prepared by making a suspension of colonies from an 18 to 24 hours old plate in CAMHB. The inoculum was diluted so that, after inoculation, each well contained approximately 5×10^5 CFU/mL. To a volume of 50 μl compound in CAMHB an equal volume of inoculum was added. The tray was sealed in a plastic bag and incubated at 35° C. for 16 to 20 hours. To aid in the detection of growth the dye resazurin was added to a final concentration 0.001% and incubated at room temperature for 1 h. Reduction of resazurin, and therefore bacterial growth, was seen as a change from blue to pink.

[4] = ATCC25922, read-out: E. coli MIC, Table 15, NI = No inhibition
[5] = ATCC25922, read-out: E. coli MIC

SMILES | IC50 [1] [µM] | MIC [2] [µg/mL] | MIC [3, 4] [µg/mL] | MIC [3, 5] [µg/mL]
CCOC(=O)c1ccc2c(c1)Sc1cc(-c3cc4ccccc4[nH]3)ccc1N2CCCN [compound 258, ethyl 10-(3-aminopropyl)-7-(1H-indol-2-yl)-10H-phenothiazine-3-carboxylate] | 24 | 2 (≈ 4.51 µM) | 128 (≈ 289 µM) | 
NCCCN1c2ccc(N3CCN(CCN)CC3)cc2Sc2cc(C(F)(F)F)ccc21 [compound 266, 3-(3-(4-(2-aminoethyl)piperazin-1-yl)-7-(trifluoromethyl)-10H-phenothiazin-10-yl)propan-1-amine hydrochloride] | 31 | 16 |  | 64
NCCN1CCC(Nc2cc(C(F)(F)F)cc3c2Nc2ncccc2S3)CC1 [compound 268, N-(1-(2-aminoethyl)piperidin-4-yl)-7-(trifluoromethyl)-10H-benzo[b] pyrido[2,3-e] [1,4]thiazin-9-amine] | 31 | 8 (≈ 19.5 µM) | 4 (≈ 9.77 µM) | 
N#Cc1ccc2c(c1)Sc1cc(N3CCN(CCN)CC3)ccc1N2CCCN [compound 292, 7-(4-(2-aminoethyl)piperazin-1-yl)-10-(3-aminopropyl)-10H-phenothiazine-3-carbonitrile trifluoro acetic acid] | 140 | 128 (≈ 313 µM) |  | > 128
Cl.Cl.NCCN1CCC(Nc2cc(C(F)(F)F)cc3c2Nc2ccc(C(=O)N4CCCC4)cc2S3)CC1 [compound 293, (9-((1-(2-aminoethyl)piperidin-4-yl)amino)-7-(trifluoromethyl)-10H-phenothiazin-3-yl)(pyrrolidin-1-yl)methanone hydrochloride] | 62 | 8 | 16 | 
Cl.NC1CCCC(C(=O)Nc2cc(C(F)(F)F)cc3c2Nc2ccc(N4CCCC4)cc2S3)C1 (centres unmarked) [compound 294, 3-amino-N-(7-(pyrrolidin-1-yl)-3-(trifluoromethyl)-10H-phenothiazin-1-yl)cyclohexane-1-carboxamide hydrochloride] | 2.4 | 8 | 64 | 
CN(C)C1CCN(c2ccc3c(c2)Sc2cc(C(F)(F)F)cc(NC4CCN(CCN)CC4)c2N3)CC1.Cl.Cl [compound 295, N-(1-(2-aminoethyl)piperidin-4-yl)-7-(4-(dimethylamino)piperidin-1-yl)-3-(trifluoromethyl)-10H-phenothiazin-1-amine hydrochloride] | 21 | 32 | 128 | 
Cl.NCCNCCCNc1cc(C(F)(F)F)cc2c1Nc1ccccc1S2 [compound 297, N1-(2-aminoethyl)-N3-(3-(trifluoromethyl)-10H-phenothiazin-1-yl)propane-1,3-diamine hydrochloride] | 43 | 16 | 32 | 
Cl.NCCNCCCNc1cc(C(F)(F)F)cc2c1Nc1ccc(Br)cc1S2 [compound 298, N1-(2-aminoethyl)-N3-(7-bromo-3-(trifluoromethyl)-10H-phenothiazin-1-yl)propane-1,3-diamine] | 14 | 8 | 8 | 
CN(C)C1CCN(c2ccc3c(c2)Sc2cc(C(F)(F)F)cc(NC4CCN(CCN)CC4)c2N3)C1.Cl.Cl (centres unmarked) [compound 299, N-(1-(2-aminoethyl)piperidin-4-yl)-7-(3-(dimethylamino)pyrrolidin-1-yl)-3-(trifluoromethyl)-10H-phenothiazin-1-amine hydrochloride] | 6.8 | 8 | 32 | 
Cl.Cl.NCCN1CCC(Nc2cc(C(F)(F)F)cc3c2Nc2ccc(N4CCC(F)(F)C4)cc2S3)CC1 [compound 303, N-(1-(2-aminoethyl)piperidin-4-yl)-7-(3,3-difluoro-pyrrolidin-1-yl)-3-(trifluoromethyl)-10H-phenothiazin-1-amine hydrochloride] | 9.7 | 8 | 32 | 
CC1CCN(c2ccc3c(c2)Sc2cc(C(F)(F)F)cc(NC4CCN(CCN)CC4)c2N3)C1.Cl.Cl (centres unmarked) [compound 311, N-(1-(2-aminoethyl)piperidin-4-yl)-7-(3-methyl-pyrrolidin-1-yl)-3-(trifluoromethyl)-10H-phenothiazin-1-amine hydrochloride] | 2.5 | 2 | 8 | 
Cl.Cl.NC1CCCC(C(=O)Nc2cc(C(F)(F)F)cc3c2Nc2ccc(Br)cc2S3)C1 (centres unmarked) [compound 312, 3-amino-N-(7-bromo-3-(trifluoromethyl)-10H-phenothiazin-1-yl)cyclohexane-1-carboxamide hydrochloride] | 12 | 2 | 16 | 
CC1CCCCN1c1ccc2c(c1)Sc1cc(C(F)(F)F)cc(NC3CCN(CCN)CC3)c1N2.Cl.Cl.Cl (centres unmarked) [compound 314, N-(1-(2-aminoethyl)piperidin-4-yl)-7-(2-methyl-piperidin-1-yl)-3-(trifluoromethyl)-10H-phenothiazin-1-amine hydrochloride] | 30 | 4 | 8 | 
NCCNCCCNc1cc(C(F)(F)F)cc2c1Nc1ccc(C3CCCC3)cc1S2 [compound 353, N1-(2-aminoethyl)-N3-(7-cyclopentyl-3-(trifluoromethyl)-10H-phenothiazin-1-yl) propane-1,3-diamine hydrochloride] |  | 2 |  | 8
Cl.Cl.NCCN1CCC(Nc2cc(C(F)(F)F)cc3c2Nc2ccc(C4CCCC4)cc2S3)CC1 [compound 354, N-(1-(2-aminoethyl)piperidin-4-yl)-7-cyclopentyl-3-(trifluoromethyl)-10H-phenothiazin-1-amine hydrochloride] |  | 1 | 8 | 
Cl.NCCNCCCNc1cc(C(F)(F)F)cc2c1Nc1cc(Br)ccc1S2 [compound 355, N1-(2-aminoethyl)-N3-(8-bromo-3-(trifluoromethyl)-10H-phenothiazin-1-yl)propane-1,3-diamine hydrochloride] |  | 4 | 8 | 
Cl.NCCN1CCC(Nc2cc(C(F)(F)F)cc3c2Nc2cc(N4CCCC4)ccc2S3)CC1 [compound 356, N-(1-(2-aminoethyl)piperidin-4-yl)-8-(pyrrolidin-1-yl)-3-(trifluoromethyl)-10H-phenothiazin-1-amine hydrochloride] |  | 16 | 32 | 
CC1CC(C)CN(c2ccc3c(c2)Nc2c(NC4CCN(CCN)CC4)cc(C(F)(F)F)cc2S3)C1.Cl (centres unmarked) [compound 357, N-(1-(2-aminoethyl)piperidin-4-yl)-8-(3,5-dimethyl-piperidin-1-yl)-3-(trifluoromethyl)-10H-phenothiazin-1-amine hydrochloride] |  | 16 | 64 | 
Cl.NCCNCCCNc1cc(C(F)(F)F)cc2c1Nc1ccc(C3=CCCC3)cc1S2 [compound 358, N1-(2-aminoethyl)-N3-(7-(cyclopent-1-en-1-yl)-3-(trifluoromethyl)-10H-phenothiazin-1-yl) propane-1,3-diaminehydrochloride] |  | 16 | 16 | 
Cl.NCCN1CCC(Nc2cc(C(F)(F)F)cc3c2Nc2ccc(C4=CCCC4)cc2S3)CC1 [compound 359, N-(1-(2-aminoethyl)piperidin-4-yl)-7-(cyclopent-1-en-1-yl)-3-(trifluoromethyl)-10H-phenothiazin-1-amine hydrochloride] |  | 16 | 64 | 
